Values of other authors, collected in patent EP2077109A1, “AMIDE COMPOUND, SALT THEREOF, AND BIOFILM REMOVER USING THEM” (The University of Tokyo, priority 2006, dated 2008).

Test system: autoinducer
Settings: statement taken from Patent Document 1 (JP 2006-512290)

CCCCCCCCCC(=O)CC(=O)NN1CCCCC1
autoinducer agonist activity: exhibits autoinducer agonist activity
